Here are results for 28 compounds from patent publication US20220363665A1, “QUINOLINE COMPOUNDS FOR THE TREATMENT OF AUTOIMMUNE DISEASE” (Hoffmann-La Roche Inc., priority 2019, published 2022).

Some results are limits rather than exact numbers.

In the experiment the target is T1, human TLR7 (Homo sapiens, UniProt Q9NYK1).
T1 construct: host or cells: HEK293 (HEK-Blue hTLR7)
T1 sequence (Q9NYK1 27-1049): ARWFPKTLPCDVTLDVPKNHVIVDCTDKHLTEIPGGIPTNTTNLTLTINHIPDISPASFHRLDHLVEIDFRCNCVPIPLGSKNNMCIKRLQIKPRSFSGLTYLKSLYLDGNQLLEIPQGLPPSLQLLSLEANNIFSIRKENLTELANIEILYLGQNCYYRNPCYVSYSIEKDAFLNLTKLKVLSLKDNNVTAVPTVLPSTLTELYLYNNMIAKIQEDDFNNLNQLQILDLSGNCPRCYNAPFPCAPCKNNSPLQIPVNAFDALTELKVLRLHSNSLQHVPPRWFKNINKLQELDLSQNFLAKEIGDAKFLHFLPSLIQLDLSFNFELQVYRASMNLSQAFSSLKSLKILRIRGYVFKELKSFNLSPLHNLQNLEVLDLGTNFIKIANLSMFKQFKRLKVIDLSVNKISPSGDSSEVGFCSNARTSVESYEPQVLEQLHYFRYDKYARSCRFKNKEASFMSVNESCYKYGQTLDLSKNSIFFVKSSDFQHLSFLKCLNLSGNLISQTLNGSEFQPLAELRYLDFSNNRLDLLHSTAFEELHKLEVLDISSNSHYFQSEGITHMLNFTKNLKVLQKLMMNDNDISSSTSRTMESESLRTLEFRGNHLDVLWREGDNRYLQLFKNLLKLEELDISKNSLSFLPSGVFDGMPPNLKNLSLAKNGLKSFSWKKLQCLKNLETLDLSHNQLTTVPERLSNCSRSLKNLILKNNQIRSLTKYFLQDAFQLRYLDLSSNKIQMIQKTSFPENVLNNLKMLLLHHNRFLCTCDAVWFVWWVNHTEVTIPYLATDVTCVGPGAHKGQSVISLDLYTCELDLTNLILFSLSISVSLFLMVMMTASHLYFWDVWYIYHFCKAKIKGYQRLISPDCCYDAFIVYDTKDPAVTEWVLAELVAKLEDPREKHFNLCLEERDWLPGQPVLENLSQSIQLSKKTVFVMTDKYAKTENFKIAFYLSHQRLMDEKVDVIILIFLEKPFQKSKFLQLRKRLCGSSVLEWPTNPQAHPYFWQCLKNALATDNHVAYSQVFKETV
As to the kind of experiment: HEK293-Blue-hTLR-7 cells assay (SEAP reporter, R848 stimulation). The settings on record: HEK293-Blue-hTLR7 cells, R848, 20 hrs. The format is cell-based. As for the experimental part:
The following tests were carried out in order to determine the activity of the compounds of formula (I) in HEK293-Blue-hTLR-7/8/9 cells assay.
HEK293-Blue-hTLR-7 Cells Assay:
A stable HEK293-Blue-hTLR-7 cell line was purchased from InvivoGen (Cat. #: hkb-htlr7, San Diego, Calif. USA). These cells were originally designed for studying the stimulation of human TLR7 by monitoring the activation of NF-κB. A SEAP (secreted embryonic alkaline phosphatase) reporter gene was placed under the control of the IFN-β minimal promoter fused to five NF-κB and AP-1-binding sites. The SEAP was induced by activating NF-κB and AP-1 via stimulating HEK-Blue hTLR7 cells with TLR7 ligands. Therefore the reporter expression was declined by TLR7 antagonist under the stimulation of a ligand, such as R848 (Resiquimod), for incubation of 20 hrs. The cell culture supernatant SEAP reporter activity was determined using QUANTI-Blue™ kit (Cat. #: rep-qbl, Invivogen, San Diego, Calif., USA) at a wavelength of 640 nm, a detection medium that turns purple or blue in the presence of alkaline phosphatase.
HEK293-Blue-hTLR7 cells were incubated at a density of 250,000˜450,000 cells/mL in a volume of 170 μL in a 96-well plate in Dulbecco's Modified Eagle's medium (DMEM) containing 4.5 g/L glucose, 50 U/mL penicillin, […], […], 2 mM L-glutamine, 10% (v/v) heat-inactivated fetal bovine serum with addition of 20 μL A test compound in a serial dilution in the presence of final DMSO at 1% and 10 μL of 20 uM R848 in above DMEM, perform incubation under 37° C. in a CO2 incubator for 20 hrs. Then 20 μL of the supernatant from each well was incubated with 180 μQuanti-blue substrate solution at 37° C. for 2 hrs and the absorbance was read at 620˜655 nm using a spectrophotometer. The signalling pathway that TLR7 activation leads to downstream NF-κB activation has been widely accepted, and therefore similar reporter assay was modified for evaluating TLR7 antagonist.
`C[C@@H]1CN(c2ccc(C(F)(F)F)c3ncccc23)C[C@H](C(=O)N2CCC(N)CC2)O1` [Example 12, (4-amino-1-piperidyl)-[(2R,6R)-6-methyl-4-[8-(trifluoromethyl)-5-quinolyl]morpholin-2-yl]methanone]: the IC50 (usually the concentration at which inhibition is half-maximal) worked out at 150 nM. `CC(NC(=O)[C@H]1CN(c2ccc(C(F)(F)F)c3ncccc23)C[C@@H](C)O1)C1CN(C)CCO1` (single isomer, unassigned) [Example 35B] came in with an IC50 of 65 nM. Next, `CC(NC(=O)[C@H]1CN(c2ccc(C(F)(F)F)c3ncccc23)C[C@@H](C)O1)C1CN(C)CCO1` (single isomer, unassigned) [Example 35A]: 28 nM; `C[C@H]1C[C@@H](N)CN(c2ccc(C(F)(F)F)c3ncccc23)C1` [Example 1, (3R,5S)-5-methyl-1-[8-(trifluoromethyl)-5-quinolyl]piperidin-3-amine]: 5 nM; `C[C@@H]1CN(c2ccc([N+](=O)[O-])c3ncccc23)C[C@H](C(=O)N[C@@H]2CNC[C@@H]2F)O1` [Example 19, cis-(2R,6R)-N-[41-fluoropyrrolidin-3-yl]-6-methyl-4-(8-nitro-5-quinolyl)morpholine-2-carboxamide]: 14 nM.

For the compound `C[C@@H]1CN(c2ccc(C(F)(F)F)c3ncccc23)C[C@H](C(=O)NC2CC3CCC(C2)N3)O1` (single isomer, unassigned) [Example 47A], the IC50 is less than 3 nM. Then `C[C@@H]1CN(c2ccc(C(F)(F)F)c3ncccc23)C[C@H](C(=O)NC2CC3CNCC(C3)C2)O1` (stereo partly drawn) [Example 37, (2R,6R)-N-(3-azabicyclo[3.3.1]nonan-7-yl)-6-methyl-4-[8-(trifluoromethyl)-5-quinolyl]morpholine-2-carboxamide], with 2 nM; and `C[C@@H]1CN(c2ccc(C(F)(F)F)c3ncccc23)C[C@H](C(=O)NCC2CNCC2(F)F)O1` (stereo partly drawn) [Example 29, (2R,6R)-N-[(4,4-difluoropyrrolidin-3-yl)methyl]-6-methyl-4-[8-(trifluoromethyl)-5-quinolyl]morpholine-2-carboxamide], with 37 nM. Next, `C[C@@H]1CN(c2ccc(C(F)(F)F)c3ncccc23)C[C@H](C(=O)NC2CC3CCC(C2)N3)O1` (single isomer, unassigned) [Example 47B]: less than 3 nM; `C[C@H]1C[C@@H](N)CN(c2ccc(Cl)c3ncccc23)C1` [Example 23, (3R,5S)-1-(8-chloro-5-quinolyl)-5-methyl-piperidin-3-amine]: 7 nM; `C[C@@H]1CN(c2ccc(C(F)(F)F)c3ncccc23)C[C@H](C(=O)NC2CC3CCCC(C2)N3)O1` (single isomer, unassigned) [Example 34A]: 4 nM. The compound `C[C@@H]1CN(c2ccc(Cl)c3ncccc23)C[C@H](C(=O)NC2CCN(C)CC2)O1` [Example 24, (2R,6R)-4-(8-chloro-5-quinolyI)-6-methyl-N-(1-methyl-4-piperidyl)morpholine-2-carboxamide] registered an IC50 of 15 nM. Regarding `C[C@@H]1CN(c2ccc(C(F)(F)F)c3ncccc23)C[C@H](C(=O)N2CC(N)C2)O1` [Example 7, (3-aminoazetidin-1-yl)-[(2R,6R)-6-methyl-4-[8-(trifluoromethyl)-5-quinolyl]morpholin-2-yl]methanone], the IC50 was 63 nM.

`C[C@@H]1CN(c2ccc(C(F)(F)F)c3ncccc23)C[C@H](C(=O)NC2C3CCCC2CNC3)O1` (stereo partly drawn) [Example 45, (2R,6R)-N-(3-azabicyclo[3.3.1]nonan-9-yl)-6-methyl-4-[8-(trifluoromethyl)-5-quinolyl]morpholine-2-carboxamide] came in with an IC50 of less than 3 nM. Next, `C[C@@H]1CN(c2ccc(C(F)(F)F)c3ncccc23)C[C@H](C(=O)NC2CNC[C@@H]2F)O1` (stereo partly drawn) [Example 2, cis-(2R,6R)-N-(4-fluoropyrrolidin-3-yl)-6-methyl-4-[8-(trifluoromethyl)-5-quinolyl]morpholine-2-carboxamide]: 52 nM; `Cc1ccc(N2C[C@@H](C)O[C@@H](C(=O)N[C@@H]3CNC[C@@H]3F)C2)c2cccnc12` [Example 21, cis-(2R,6R)-N-14-fluoropyrrolidin-3-yl1-6-methyl-4-(8-methyl-5-quinolyl)morpholine-2carboxamide]: 71 nM. Then `C[C@@H]1CN(c2ccc(Br)c3ncccc23)C[C@H](C(=O)NC2CCN(C)CC2)O1` [Example 42, (2R,6R)-4-(8-bromo-5-quinolyl)-6-methyl-N-(1-methyl-4-piperidyl)morpholine-2-carboxamide], with 5 nM; and `C[C@@H]1CN(c2ccc(Cl)c3ncccc23)C[C@H](C(=O)N[C@H]2CNC[C@H]2F)O1` [Example 22, (2R,6R)-4-(8-chloro-5-quinolyl)-N-[(3S,4R)-4-fluoropyrrolidin-3-yl]-6-methyl-morpholine-2-carboxamide], with 39 nM; and `C[C@@H]1CN(c2ccc(C(F)(F)F)c3ncccc23)C[C@H](C(=O)NCC2CNCCO2)O1` (stereo partly drawn) [Example 48, (2R,6R)-6-methyl-N-(morpholin-2-ylmethyl)-4-[8-(trifluoromethyl)-5-quinolyl]morpholine-2-carboxamide], with 4 nM.

As to `C[C@@H]1CN(c2ccc(C(F)(F)F)c3ncccc23)C[C@H](C(=O)NC2C[C@H]3C[C@@H]2CN3)O1` (stereo partly shown) [Example 44], the IC50 worked out at 18 nM. Next, `C[C@@H]1CN(c2ccc(C(F)(F)F)c3ncccc23)C[C@H](C(=O)NC2C3CNCC2COC3)O1` (single isomer, unassigned) [Example 46B]: 21 nM. Then `C[C@@H]1CN(c2ccc(C(F)(F)F)c3ncccc23)C[C@H](C(=O)NC2CC3COCC(C2)N3)O1` (stereo partly drawn) [Example 33, (2R,6R)-6-methyl-N-(3-oxa-9-azabicyclo[3.3.1]nonan-7-yl)-4-[8-(trifluoromethyl)-5-quinolyl]morpholine-2-carboxamide], with 2 nM. Next, `C[C@@H]1CN(c2ccc(C(F)(F)F)c3ncccc23)C[C@H](C(=O)NC2CC3CNCC32)O1` (single isomer, unassigned) [Example 49C]: 8 nM; `C#Cc1ccc(N2C[C@@H](C)O[C@@H](C(=O)NC3CCN(C)CC3)C2)c2cccnc12` [Example 43, (2R,6R)-4-(8-ethynyl-5-quinolyl)-6-methyl-N-(1-methyl-4-piperidyl)morpholine-2-carboxamide]: 10 nM; `C[C@@H]1CN(c2ccc(C(F)(F)F)c3ncccc23)C[C@H](C(=O)NC2C3CNCC2COC3)O1` (single isomer, unassigned) [Example 46A]: 8 nM.

On to `C[C@@H]1CN(c2ccc(I)c3ncccc23)C[C@H](C(=O)NC2CNCC2F)O1` (stereo partly drawn) [Example 40, cis-(2R,6R)-N-[4-fluoropyrrolidin-3-yl]-4-(8-iodo-5-quinolyl)-6-methyl-morpholine-2-carboxamide], for which the IC50 worked out at 15 nM. Compared with the last compound, the IC50 is about 1.9-fold higher.

`C[C@@H]1CN(c2ccc(C(F)(F)F)c3ncccc23)C[C@H](C(=O)N[C@H]2CNC[C@H]2F)O1` (single isomer, unassigned) [Example 2B] gave an IC50 of 15 nM. Then `C[C@@H]1CN(c2ccc(C(F)(F)F)c3ncccc23)C[C@H](C(=O)N2CCC3(CCNC3)C2)O1` (stereo partly shown) [Example 36], with 130 nM.
